Test results published in ChEMBL document CHEMBL2346498, “Expression, characterization and inhibition of Toxoplasma gondii 1-deoxy-D-xylulose-5-phosphate reductoisomerase” (Bioorg Med Chem Lett, 2013).

Experiment: Inhibition of recombinant Toxoplasma gondii DXR catalytic domain (68 to 513) expressed in Escherichia coli BL21 using DXP as substrate after 10 mins by Uv-spectrophotometric analysis
Assay type: cell-free

Compound	Ki
CC(=O)N(O)CCC(c1cccnc1)P(=O)(O)O (stereo unspecified)	0.97 µM
O=P(O)(O)Cc1ccccn1 [PYRIDIN-2-YLMETHYLPHOSPHONIC ACID]	4.1 µM
O=CN(O)CCC(c1cccnc1)P(=O)(O)O (stereo unspecified)	0.055 µM
O=P(O)(O)Cc1ccc(-c2ccccc2)cn1	2.1 µM
CC(=O)N(O)CCC(c1ccncc1)P(=O)(O)O (stereo unspecified)	0.53 µM
CC(=O)N(O)CCCP(=O)(O)O [FR-900098]	0.048 µM
O=CN(O)CCC(c1ccncc1)P(=O)(O)O (stereo unspecified)	0.079 µM
CC(=O)N(O)CCC(c1ccc(Cl)c(Cl)c1)P(=O)(O)O (stereo unspecified)	0.22 µM
O=CN(O)CCCP(=O)(O)O [FOSMIDOMYCIN]	0.09 µM
O=CN(O)CCC(c1ccc(Cl)c(Cl)c1)P(=O)(O)O (stereo unspecified)	0.077 µM
O=c1ccc(-c2ccccc2)cn1O [1-HYDROXY-5-PHENYLPYRIDIN-2(1H)-ONE]	25.6 µM
